Literature values in patent US9572848B1, “Composition of matter for sexual dysfunction” (Aemes Research L.L.L.P., priority 2014, dated 2017).

Legend:
[1] = system: blood pressure; details: meta-analysis
[2] = system: growth hormone (GH) levels; details: oral arginine, 9-gram dose; placebo 2.9 (+/−0.7)

## N=C(N)NCCC[C@H](N)C(=O)O [L-arginine]
[1]
  Reduction of DBP, pooled estimate: 2.7 mmHg
  Reduction of SBP, pooled estimate: 5.4 mmHg
[2]
  Mean peak GH level: 6.4 (+/−1.3) μg/L
